# According to patent US20250313535A1, “ALPHA 4 BETA 7 INTEGRIN MODULATORS AND USES THEREOF” (DICE MOLECULES SV, INC., priority 2022, published 2025):
# Assays:
# α4β7 integrin = α4β7 integrin (Homo sapiens (Human), UniProt P13612+P26010); experiment: Integrin Adhesion Assay: Protocol 4 (MAdCAM-coated plate, RPMI-8866 cells with stable LOF mutation of the ITGB1 gene); type: cell-based; conditions: RPMI-8866 cells with stable LOF mutation of the ITGB1 gene; read-out: Mean IC50 α4β7 KO^a
# Procedure, shortened: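 RPMI-8866 cells with CRISPR/Cas9 knockout of ITGB1 (2×10^6/mL) were added to MAdCAM-coated wells with compound (1% DMSO) in HEPES/NaCl buffer with 1 mM MnCl2, 0.1 mM CaCl2 and 1% BSA, then incubated 1 h at 37 °C. After four washes, adherent cells were quantified by CellTiter-Glo luminescence. Percent inhibition versus DMSO and control compound was fitted to 4-parameter curves.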
# α4β1 integrin = α4β1 integrin (Homo sapiens (Human), UniProt P05556+P13612); experiment: Integrin Adhesion Assay: Protocol 5 (VCAM-coated plate, RPMI-8866 cells with stable LOF mutation of the ITGB7 gene); type: cell-based; conditions: RPMI-8866 cells with stable LOF mutation of the ITGB7 gene; read-out: Mean IC50 α4β1 KO^b
# Chain of α4β1 integrin (P13612 34-1032): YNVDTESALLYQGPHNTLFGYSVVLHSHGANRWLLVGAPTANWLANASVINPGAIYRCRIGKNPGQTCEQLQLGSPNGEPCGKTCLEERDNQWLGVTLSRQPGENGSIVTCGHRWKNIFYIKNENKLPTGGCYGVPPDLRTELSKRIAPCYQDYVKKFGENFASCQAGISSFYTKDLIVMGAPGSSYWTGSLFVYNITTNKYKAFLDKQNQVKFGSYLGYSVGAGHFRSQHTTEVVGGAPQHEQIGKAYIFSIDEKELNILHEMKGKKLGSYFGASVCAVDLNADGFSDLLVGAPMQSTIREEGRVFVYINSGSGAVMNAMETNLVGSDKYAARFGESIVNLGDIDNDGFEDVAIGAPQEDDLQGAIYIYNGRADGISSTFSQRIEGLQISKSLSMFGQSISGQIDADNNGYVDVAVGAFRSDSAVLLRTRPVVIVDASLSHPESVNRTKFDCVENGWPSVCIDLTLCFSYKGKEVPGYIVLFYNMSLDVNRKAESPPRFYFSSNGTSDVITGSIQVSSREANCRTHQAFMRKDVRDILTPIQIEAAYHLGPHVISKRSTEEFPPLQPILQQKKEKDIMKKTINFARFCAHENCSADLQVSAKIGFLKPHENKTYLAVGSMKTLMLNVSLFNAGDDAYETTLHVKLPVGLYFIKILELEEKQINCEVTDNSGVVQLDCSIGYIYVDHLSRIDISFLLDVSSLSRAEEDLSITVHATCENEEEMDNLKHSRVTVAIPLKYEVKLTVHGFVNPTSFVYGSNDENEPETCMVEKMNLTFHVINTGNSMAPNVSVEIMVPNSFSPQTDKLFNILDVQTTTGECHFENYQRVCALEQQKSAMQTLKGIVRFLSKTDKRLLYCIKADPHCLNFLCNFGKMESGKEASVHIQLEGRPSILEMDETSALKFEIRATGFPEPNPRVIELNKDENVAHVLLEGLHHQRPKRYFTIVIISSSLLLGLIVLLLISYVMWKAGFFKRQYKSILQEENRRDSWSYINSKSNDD
# Chain of α4β1 integrin (P05556 21-798): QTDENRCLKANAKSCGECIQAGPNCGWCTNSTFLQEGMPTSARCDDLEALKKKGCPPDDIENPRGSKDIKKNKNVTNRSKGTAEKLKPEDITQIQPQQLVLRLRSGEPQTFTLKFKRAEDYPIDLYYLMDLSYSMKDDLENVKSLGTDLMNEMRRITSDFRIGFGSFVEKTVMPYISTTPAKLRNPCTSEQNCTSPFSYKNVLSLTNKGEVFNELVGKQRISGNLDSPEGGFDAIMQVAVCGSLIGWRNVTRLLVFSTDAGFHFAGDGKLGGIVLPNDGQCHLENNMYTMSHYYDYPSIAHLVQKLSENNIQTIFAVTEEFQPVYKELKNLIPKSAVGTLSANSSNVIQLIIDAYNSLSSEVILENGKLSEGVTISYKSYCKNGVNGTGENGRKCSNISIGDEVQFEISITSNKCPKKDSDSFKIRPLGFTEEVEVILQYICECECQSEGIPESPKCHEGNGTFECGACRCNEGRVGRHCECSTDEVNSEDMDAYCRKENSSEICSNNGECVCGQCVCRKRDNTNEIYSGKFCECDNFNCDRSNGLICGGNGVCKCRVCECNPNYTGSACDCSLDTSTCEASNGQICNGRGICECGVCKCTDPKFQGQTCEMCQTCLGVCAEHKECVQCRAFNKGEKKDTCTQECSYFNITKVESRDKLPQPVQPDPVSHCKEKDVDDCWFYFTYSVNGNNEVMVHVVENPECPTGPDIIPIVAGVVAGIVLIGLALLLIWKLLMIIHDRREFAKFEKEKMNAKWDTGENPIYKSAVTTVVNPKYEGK
# Procedure, shortened: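 RPMI-8866 B cells with CRISPR/Cas9 ITGB7 knockout (clonal, verified by flow cytometry) adhered to VCAM-coated wells for 1 h at 37° C in HEPES/NaCl buffer with 1 mM MnCl2, 0.1 mM CaCl2, 1% BSA, 1% DMSO. Bound cells quantified by CellTiter-Glo luminescence after washing; % inhibition versus DMSO and control, 4-parameter fit.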
# Chain of α4β7 integrin (P13612 34-1032): as the sequence (P13612 34-1032) above
# Chain of α4β7 integrin (P26010 20-798): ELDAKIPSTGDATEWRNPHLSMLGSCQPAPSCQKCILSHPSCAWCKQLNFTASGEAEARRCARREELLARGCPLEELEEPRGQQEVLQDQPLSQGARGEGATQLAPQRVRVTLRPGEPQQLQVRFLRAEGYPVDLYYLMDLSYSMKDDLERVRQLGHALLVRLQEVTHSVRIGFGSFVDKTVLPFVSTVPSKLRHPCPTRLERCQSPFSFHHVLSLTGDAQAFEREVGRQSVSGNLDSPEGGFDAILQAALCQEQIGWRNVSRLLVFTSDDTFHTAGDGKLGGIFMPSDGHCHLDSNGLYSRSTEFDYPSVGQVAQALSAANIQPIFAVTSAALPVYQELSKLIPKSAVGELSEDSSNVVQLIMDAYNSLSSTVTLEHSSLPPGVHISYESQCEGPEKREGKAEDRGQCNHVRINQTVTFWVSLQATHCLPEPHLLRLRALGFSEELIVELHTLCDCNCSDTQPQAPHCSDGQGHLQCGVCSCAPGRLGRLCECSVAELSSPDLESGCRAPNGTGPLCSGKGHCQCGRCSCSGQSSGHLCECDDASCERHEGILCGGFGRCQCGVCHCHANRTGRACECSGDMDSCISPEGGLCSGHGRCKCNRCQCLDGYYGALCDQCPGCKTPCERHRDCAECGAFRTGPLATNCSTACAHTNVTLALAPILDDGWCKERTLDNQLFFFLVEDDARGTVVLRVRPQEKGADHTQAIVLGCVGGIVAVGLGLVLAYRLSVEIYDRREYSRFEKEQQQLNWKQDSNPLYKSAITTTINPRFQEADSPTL
SMILES,IC50 (α4β7 integrin) [nM],IC50 (α4β1 integrin) [nM]
COc1ccc2cccnc2c1-c1cccc2c(C[C@H](NC(=O)c3c(F)cccc3F)C(=O)O)cccc12 [Compound 501],100 to 1000,> 1000
COCCN1CCC(C(=O)N[C@@H](Cc2cccc3c(-c4c(C(F)(F)F)c5ccccc5n(C)c4=O)cccc23)C(=O)O)(C(F)(F)F)CC1 [Compound 502],< 10,100 to 1000
CCOCCN1CCC(C(=O)N[C@@H](Cc2cccc3c(-c4c(C(F)(F)F)c5ccccc5n(C)c4=O)cccc23)C(=O)O)(C(F)(F)F)CC1 [Compound 503],10 to 100,100 to 1000
Cn1c(=O)c(-c2cccc3c(C[C@H](NC(=O)C4(C(F)(F)F)CCN(C5CCOCC5)CC4)C(=O)O)cccc23)c(C(F)(F)F)c2ccccc21 [Compound 504],10 to 100,> 1000
Cn1c(=O)c(-c2cccc3c(C[C@H](NC(=O)C4(C(F)(F)F)CCN(C5CCS(=O)(=O)CC5)CC4)C(=O)O)cccc23)c(C(F)(F)F)c2ccccc21 [Compound 505],10 to 100,> 1000
Cn1c(=O)c(-c2cccc3c(C[C@H](NC(=O)C4(C)CN(C5CCOC(C(F)(F)F)C5)C4)C(=O)O)cccc23)c(C(F)(F)F)c2ccccc21 (stereo partly shown) [Compound 506],100 to 1000,> 1000
Cn1c(=O)c(-c2cccc3c(C[C@H](NC(=O)C4(C(F)(F)F)CCN(C5COC(C(F)(F)F)C5)CC4)C(=O)O)cccc23)c(C(F)(F)F)c2ccccc21 (stereo partly shown) [Compound 507],100 to 1000,> 1000
Cn1c(=O)c(-c2cccc3c(C[C@H](NC(=O)C4(C(F)(F)F)CCN(C5CCOC5(C)C)CC4)C(=O)O)cccc23)c(C(F)(F)F)c2ccccc21 (stereo partly shown) [Compound 508],10 to 100,100 to 1000
CC1OCCC1N1CCC(C(=O)N[C@@H](Cc2cccc3c(-c4c(C(F)(F)F)c5ccccc5n(C)c4=O)cccc23)C(=O)O)(C(F)(F)F)CC1 (stereo partly shown) [Compound 509],< 10,100 to 1000
CC1OCC1N1CCC(C(=O)N[C@@H](Cc2cccc3c(-c4c(C(F)(F)F)c5ccccc5n(C)c4=O)cccc23)C(=O)O)(C(F)(F)F)CC1 (stereo partly shown) [Compound 510],< 10,100 to 1000
Cn1c(=O)c(-c2cccc3c(C[C@H](NC(=O)C4(C(F)(F)F)CCN(C5CCOCC5C(F)(F)F)CC4)C(=O)O)cccc23)c(C(F)(F)F)c2ccccc21 (stereo partly shown) [Compound 511],10 to 100,> 1000
Cn1c(=O)c(-c2cccc3c(C[C@H](NC(=O)C4(C(F)(F)F)CCN(C5COCC5(F)F)CC4)C(=O)O)cccc23)c(C(F)(F)F)c2ccccc21 (stereo partly shown) [Compound 512],< 10,100 to 1000
Cn1c(=O)c(-c2cccc3c(C[C@H](NC(=O)C4(C(F)(F)F)CCN(C5COCC5C(F)(F)F)CC4)C(=O)O)cccc23)c(C(F)(F)F)c2ccccc21 (stereo partly shown) [Compound 513],10 to 100,> 1000
Cn1c(=O)c(-c2cccc3c(C[C@H](NC(=O)C4(C(F)(F)F)CCN(C5CCOC(C(F)(F)F)C5)CC4)C(=O)O)cccc23)c(C(F)(F)F)c2ccccc21 (stereo partly shown) [Compound 514],10 to 100,> 1000
CC(N1CCC(C(=O)N[C@@H](Cc2cccc3c(-c4c(C(F)(F)F)c5ccccc5n(C)c4=O)cccc23)C(=O)O)(C(F)(F)F)CC1)C(F)(F)F (stereo partly shown) [Compound 515],100 to 1000,> 1000
Cn1c(=O)c(-c2cccc3c(C[C@H](NC(=O)C4(C(F)(F)F)CCN(C(c5ccccc5)C(F)(F)F)CC4)C(=O)O)cccc23)c(C(F)(F)F)c2ccccc21 (stereo partly shown) [Compound 516],> 1000,> 1000
Cc1cccc(F)c1C(=O)N[C@@H](Cc1cccc2c(-c3c(C(F)(F)F)c4cc(CCN5CC(F)C5)ccc4n(C)c3=O)cccc12)C(=O)O [Compound 517],< 10,> 1000
CC[C@H](N1CCC(C(=O)N[C@@H](Cc2cccc3c(-c4c(C(F)(F)F)c5ccccc5n(C)c4=O)cccc23)C(=O)O)(C(F)(F)F)CC1)C(F)(F)F [Compound 518],> 1000,> 1000
CC(=O)CN1CCC(C(=O)N[C@@H](Cc2cccc3c(-c4c(C(F)(F)F)c5ccccc5n(C)c4=O)cccc23)C(=O)O)(C(F)(F)F)CC1 [Compound 519],< 10,100 to 1000
Cn1c(=O)c(-c2cccc3c(C[C@H](NC(=O)C4(C)CCCN(CC5COC5)C4)C(=O)O)cccc23)c(C(F)(F)F)c2ccccc21 (stereo partly shown) [Compound 520],100 to 1000,> 1000

# Next, values leading:
IC50 (α4β7 integrin) [nM],IC50 (α4β1 integrin) [nM],SMILES
100 to 1000,> 1000,Cn1c(=O)c(-c2cccc3c(C[C@H](NC(=O)C4(C)CC5(CN(CC(F)(F)F)C5)C4)C(=O)O)cccc23)c(C(F)(F)F)c2ccccc21 [Compound 521]
10 to 100,> 1000,Cn1c(=O)c(-c2cccc3c(C[C@H](NC(=O)C4(C)CCC5(CCOCC5)CC4)C(=O)O)cccc23)c(C(F)(F)F)c2ccccc21 [Compound 522]
< 10,100 to 1000,COc1ccc2ccncc2c1-c1cccc2c(C[C@H](NC(=O)C3(C(F)(F)F)CCN(CC(F)(F)F)CC3)C(=O)O)cccc12 [Compound 523]
10 to 100,> 1000,O=C(O)[C@H](Cc1cccc2c(-c3c(C(F)(F)F)ccc4cccnc34)cccc12)NC(=O)C1(C(F)(F)F)CCN(CC(F)(F)F)CC1 [Compound 524]
10 to 100,> 1000,O=C(O)[C@H](Cc1cccc2c(-c3cc4ccccc4cn3)cccc12)NC(=O)C1(C(F)(F)F)CCN(C2COC2)CC1 [Compound 525]
10 to 100,> 1000,COc1cccc(OC)c1-c1cccc2c(C[C@H](NC(=O)c3c(C)cccc3F)C(=O)O)cccc12 [Compound 526]
10 to 100,> 1000,COc1ccnc(OC)c1-c1cccc2c(C[C@H](NC(=O)c3c(C)cccc3F)C(=O)O)cccc12 [Compound 527]
< 10,100 to 1000,Cn1c(=O)c(-c2cccc3c(C[C@H](NC(=O)C4(C(F)(F)F)CCN(CCF)CC4)C(=O)O)cccc23)c(C(F)(F)F)c2ccccc21 [Compound 530]
< 10,100 to 1000,COc1cc(CCN(C)C)cc(OC)c1-c1cccc2c(C[C@H](NC(=O)C3(C(F)(F)F)CCN(CC(F)(F)F)CC3)C(=O)O)cccc12 [Compound 531]
10 to 100,> 1000,CN1CCCC1c1cc(-c2cccc3c(C[C@H](NC(=O)C4(C(F)(F)F)CCN(CC(F)(F)F)CC4)C(=O)O)cccc23)c2cnccc2c1 (stereo partly shown) [Compound 532]
10 to 100,> 1000,Cn1c(=O)c(-c2cccc3c(C[C@H](NC(=O)C4(C(F)(F)F)CCN(CC5(F)CCC5)CC4)C(=O)O)cccc23)c(C(F)(F)F)c2ccccc21 [Compound 533]
10 to 100,100 to 1000,Cn1c(=O)c(-c2cccc3c(C[C@H](NC(=O)C4(C(F)(F)F)CCN(CC(C)(F)F)CC4)C(=O)O)cccc23)c(C(F)(F)F)c2ccccc21 [Compound 534]
10 to 100,> 1000,CCCN1CCC(C(=O)N[C@@H](Cc2cccc3c(-c4c(C(F)(F)F)c5ccccc5n(C)c4=O)cccc23)C(=O)O)(C(F)(F)F)CC1 [Compound 535]
10 to 100,> 1000,Cn1c(=O)c(-c2cccc3c(C[C@H](NC(=O)C4(C(F)(F)F)CCN(CCC(F)(F)F)CC4)C(=O)O)cccc23)c(C(F)(F)F)c2ccccc21 [Compound 536]
10 to 100,> 1000,Cn1c(=O)c(-c2cccc3c(C[C@H](NC(=O)C4(C(F)(F)F)CCN(CC(F)F)CC4)C(=O)O)cccc23)c(C(F)(F)F)c2cc(C(F)(F)F)ccc21 [Compound 537]
